The source made the active and inactive calls. The rule behind the calls is not given here.
How the values were obtained:
[1] = Plasma protein binding in rat; type: ADME, cell-free; settings: read-out: PPB (converted)
[2] = AUC (0 to infinity) in rat at 2 mg/kg, iv and 10 mg/kg, po; type: ADME, organism-based; settings: plasma
[3] = Terminal half life in rat at 2 mg/kg, iv and 10 mg/kg, po; type: ADME, organism-based; settings: in vivo, read-out: beta t1/2 (converted)
[4] = Volume of distribution at steady state in rat at 2 mg/kg, iv and 10 mg/kg, po; type: ADME, organism-based; settings: in vivo, read-out: Vdss
[5] = Plasma protein binding in human; type: ADME, cell-free; settings: read-out: PPB (converted)
[6] = biological target: Cytochrome P450 2D6 (Homo sapiens, UniProt P10635); assay: Inhibition of CYP2D6 (unknown origin); type: ADME
Sequence of Cytochrome P450 2D6 (P10635 whole entry): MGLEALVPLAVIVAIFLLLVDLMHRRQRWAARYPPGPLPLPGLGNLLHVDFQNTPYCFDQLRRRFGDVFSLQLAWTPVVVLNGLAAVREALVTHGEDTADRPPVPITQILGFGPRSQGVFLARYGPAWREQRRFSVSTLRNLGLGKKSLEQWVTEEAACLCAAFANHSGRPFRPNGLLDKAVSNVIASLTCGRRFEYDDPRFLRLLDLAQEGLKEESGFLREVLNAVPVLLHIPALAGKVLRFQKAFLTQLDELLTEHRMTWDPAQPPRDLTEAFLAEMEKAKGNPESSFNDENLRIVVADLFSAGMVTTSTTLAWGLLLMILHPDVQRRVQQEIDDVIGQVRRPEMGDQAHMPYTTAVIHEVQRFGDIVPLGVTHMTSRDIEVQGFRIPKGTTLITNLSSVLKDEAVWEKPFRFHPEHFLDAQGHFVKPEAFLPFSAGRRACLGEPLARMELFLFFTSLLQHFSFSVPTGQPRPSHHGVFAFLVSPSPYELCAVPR

[7] = Intrinsic clearance in human liver microsomes at 1 uM; type: ADME, Microsome; settings: read-out: CLH
[8] = system: Salmonella typhimurium; assay: Mutagenicity against Salmonella typhimurium TA98 by mini-AMES test in presence of rat S9 fraction; type: toxicity, organism-based; settings: salmonella enterica subsp. enterica serovar typhimurium
[9] = biological target: Cytochrome P450 3A4 (Homo sapiens, UniProt P08684); assay: Inhibition of CYP3A4 (unknown origin); type: ADME
Sequence of Cytochrome P450 3A4 (P08684 whole entry): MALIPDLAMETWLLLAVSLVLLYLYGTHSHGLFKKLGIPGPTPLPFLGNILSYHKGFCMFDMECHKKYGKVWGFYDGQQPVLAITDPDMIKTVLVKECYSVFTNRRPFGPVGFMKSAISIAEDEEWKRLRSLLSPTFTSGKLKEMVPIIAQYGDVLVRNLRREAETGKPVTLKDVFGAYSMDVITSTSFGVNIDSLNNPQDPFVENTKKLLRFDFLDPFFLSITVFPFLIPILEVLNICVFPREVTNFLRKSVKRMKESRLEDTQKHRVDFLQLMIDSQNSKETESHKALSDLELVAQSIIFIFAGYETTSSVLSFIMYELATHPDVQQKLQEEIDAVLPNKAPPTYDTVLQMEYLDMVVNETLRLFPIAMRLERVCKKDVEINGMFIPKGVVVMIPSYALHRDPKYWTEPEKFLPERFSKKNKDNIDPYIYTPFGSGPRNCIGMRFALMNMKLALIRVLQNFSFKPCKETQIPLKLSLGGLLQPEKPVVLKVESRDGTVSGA

[10] = system: Salmonella typhimurium; assay: Mutagenicity against Salmonella typhimurium TA100 by mini-AMES test in presence of rat S9 fraction; type: toxicity, organism-based; settings: salmonella enterica subsp. enterica serovar typhimurium
[11] = system: Rattus norvegicus; assay: Antischizophrenic activity in rat assessed as increased glycine level in CSF at 30 to 75 mg/kg, po after 30 mins relative to control; type: functional, organism-based
[12] = system: Salmonella typhimurium; assay: Mutagenicity against Salmonella typhimurium TA100 by mini-AMES test in absence of rat S9 fraction; type: toxicity, organism-based; settings: salmonella enterica subsp. enterica serovar typhimurium
[13] = Tmax in rat at 2 mg/kg, iv and 10 mg/kg, po; type: ADME, organism-based; settings: in vivo
[14] = Total plasma clearance in rat at 2 mg/kg, iv and 10 mg/kg, po; type: ADME, organism-based
[15] = Intrinsic clearance in rat liver microsomes at 1 uM; type: ADME, Microsome; settings: read-out: CLH
[16] = biological target: Cytochrome P450 2C9 (Homo sapiens, UniProt P11712); assay: Inhibition of CYP2C9 (unknown origin); type: ADME
Sequence of Cytochrome P450 2C9 (P11712 whole entry): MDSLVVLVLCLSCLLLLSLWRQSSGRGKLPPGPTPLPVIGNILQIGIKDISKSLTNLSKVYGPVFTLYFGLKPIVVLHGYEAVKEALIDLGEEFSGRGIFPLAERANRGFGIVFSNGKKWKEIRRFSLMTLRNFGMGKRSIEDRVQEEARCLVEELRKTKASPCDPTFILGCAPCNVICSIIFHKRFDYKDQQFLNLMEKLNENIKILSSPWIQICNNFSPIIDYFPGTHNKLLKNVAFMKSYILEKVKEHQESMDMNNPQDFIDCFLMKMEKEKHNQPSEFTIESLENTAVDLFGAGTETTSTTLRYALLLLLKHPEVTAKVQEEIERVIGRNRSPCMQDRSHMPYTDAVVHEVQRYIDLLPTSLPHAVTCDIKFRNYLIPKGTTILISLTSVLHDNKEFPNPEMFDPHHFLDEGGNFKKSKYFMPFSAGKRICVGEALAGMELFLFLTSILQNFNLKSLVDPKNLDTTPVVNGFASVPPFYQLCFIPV

[17] = system: Rattus norvegicus; assay: Antischizophrenic activity in po dosed rat assessed as increased glycine level in CSF after 30 mins relative to control; type: functional, organism-based
[18] = Ratio of drug uptake in brain to plasma in rat at 10 to 75 mg/kg, po after 30 mins; type: ADME, organism-based; set-up: dose 10-75 mg/kg, route oral; settings: read-out: BPR
[19] = system: Salmonella typhimurium; assay: Mutagenicity against Salmonella typhimurium TA98 by mini-AMES test in absence of rat S9 fraction; type: toxicity, organism-based; settings: salmonella enterica subsp. enterica serovar typhimurium
[20] = Drug uptake in po dosed rat CSF after 30 mins; type: ADME, organism-based, Cerebrospinal fluid; settings: in vivo, 0.5 h
[21] = Metabolic stability in human liver microsomes assessed as compound remaining at 10 uM after 60 mins; type: ADME, Microsome; settings: read-out: Stability
[22] = biological target: Cytochrome P450 2C19 (Homo sapiens, UniProt P33261); assay: Inhibition of CYP2C19 (unknown origin); type: ADME
Sequence of Cytochrome P450 2C19 (P33261 whole entry): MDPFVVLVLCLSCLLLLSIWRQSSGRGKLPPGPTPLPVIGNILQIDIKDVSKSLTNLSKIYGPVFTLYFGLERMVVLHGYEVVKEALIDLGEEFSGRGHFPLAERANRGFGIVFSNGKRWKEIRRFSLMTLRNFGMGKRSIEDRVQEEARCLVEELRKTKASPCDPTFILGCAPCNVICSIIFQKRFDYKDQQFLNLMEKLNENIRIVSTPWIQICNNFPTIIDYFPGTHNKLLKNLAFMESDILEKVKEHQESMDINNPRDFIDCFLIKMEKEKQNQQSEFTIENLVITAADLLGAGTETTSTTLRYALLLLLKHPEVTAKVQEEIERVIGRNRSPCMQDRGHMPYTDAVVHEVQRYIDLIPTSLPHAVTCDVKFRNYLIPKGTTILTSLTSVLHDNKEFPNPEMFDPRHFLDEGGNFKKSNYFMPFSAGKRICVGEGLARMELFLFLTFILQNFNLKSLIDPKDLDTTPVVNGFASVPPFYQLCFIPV

[23] = Cmax in rat at 2 mg/kg, iv and 10 mg/kg, po; type: ADME, organism-based; settings: in vivo
[24] = Oral bioavailability in rat at 10 mg/kg; type: ADME, organism-based; settings: in vivo
[25] = biological target: T1, Sodium- and chloride-dependent glycine transporter 1 (Homo sapiens, UniProt P48067); assay: Inhibition of GlyT1a in human JAR cells assessed as inhibition of [3H]glycine uptake by scintillation proximity assay; type: cell-based
T1 sequence (P48067 whole entry): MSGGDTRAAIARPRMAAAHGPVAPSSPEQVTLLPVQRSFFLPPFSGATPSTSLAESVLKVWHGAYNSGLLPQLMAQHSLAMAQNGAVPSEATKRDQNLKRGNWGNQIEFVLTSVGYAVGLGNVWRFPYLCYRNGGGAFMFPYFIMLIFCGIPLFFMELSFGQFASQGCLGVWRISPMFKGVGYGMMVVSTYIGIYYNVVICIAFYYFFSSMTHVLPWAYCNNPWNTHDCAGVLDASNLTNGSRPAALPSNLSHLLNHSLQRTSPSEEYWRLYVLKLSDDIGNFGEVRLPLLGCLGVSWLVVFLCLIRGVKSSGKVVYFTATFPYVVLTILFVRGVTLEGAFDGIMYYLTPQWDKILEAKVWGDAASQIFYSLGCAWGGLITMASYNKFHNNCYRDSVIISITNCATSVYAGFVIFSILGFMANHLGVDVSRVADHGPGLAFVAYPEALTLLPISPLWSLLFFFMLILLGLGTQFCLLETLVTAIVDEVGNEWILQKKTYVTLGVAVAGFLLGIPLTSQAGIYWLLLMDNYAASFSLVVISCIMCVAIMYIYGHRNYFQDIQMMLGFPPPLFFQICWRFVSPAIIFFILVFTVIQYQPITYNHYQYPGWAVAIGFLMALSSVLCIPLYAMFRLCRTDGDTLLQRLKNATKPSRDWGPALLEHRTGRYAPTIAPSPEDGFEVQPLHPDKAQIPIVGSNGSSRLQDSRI

[26] = biological target: T2, Sodium- and chloride-dependent glycine transporter 2 (Homo sapiens, UniProt Q9Y345); assay: Inhibition of human GlyT2 expressed in HEK293 cells assessed as inhibition of [3H]glycine uptake by scintillation proximity assay; type: cell-based
T2 sequence (Q9Y345 whole entry): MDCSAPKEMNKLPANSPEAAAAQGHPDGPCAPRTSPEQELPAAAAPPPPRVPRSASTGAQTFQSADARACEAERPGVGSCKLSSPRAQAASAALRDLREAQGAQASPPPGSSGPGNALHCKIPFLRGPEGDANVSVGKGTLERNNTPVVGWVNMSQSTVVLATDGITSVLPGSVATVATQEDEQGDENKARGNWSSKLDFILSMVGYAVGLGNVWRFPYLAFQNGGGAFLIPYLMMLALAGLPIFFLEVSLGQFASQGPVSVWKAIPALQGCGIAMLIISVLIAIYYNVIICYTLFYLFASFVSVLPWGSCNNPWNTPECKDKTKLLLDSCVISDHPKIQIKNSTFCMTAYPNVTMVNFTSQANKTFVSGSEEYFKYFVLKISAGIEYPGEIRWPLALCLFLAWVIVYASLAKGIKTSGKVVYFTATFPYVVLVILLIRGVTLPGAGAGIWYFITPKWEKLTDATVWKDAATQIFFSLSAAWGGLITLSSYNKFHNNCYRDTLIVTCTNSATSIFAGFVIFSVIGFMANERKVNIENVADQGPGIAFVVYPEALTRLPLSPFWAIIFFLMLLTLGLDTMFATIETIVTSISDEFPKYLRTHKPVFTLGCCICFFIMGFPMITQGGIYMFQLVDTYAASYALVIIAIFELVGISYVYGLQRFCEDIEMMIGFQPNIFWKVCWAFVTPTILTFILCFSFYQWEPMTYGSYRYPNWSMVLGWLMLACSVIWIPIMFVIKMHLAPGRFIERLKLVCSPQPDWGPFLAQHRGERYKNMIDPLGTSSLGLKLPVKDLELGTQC

CCCS(=O)(=O)N1CCN(C2(CNC(=O)c3c(F)cccc3F)CCC(F)(F)CC2)CC1
fraction unbound [1]: 0.16 | AUC(0-inf) [2]: 2000 ng·h/mL | half-life [3]: 2.9 h | Vd [4]: 3.26 L/kg | fraction unbound [5]: 0.13 | IC50 [6]: > 10000 nM | microsomal CLint at 1 µM [7]: 13 µL/min/mg | Activity [8]: Non-toxic | IC50 [9]: > 10000 nM | Activity [10]: Non-toxic | Activity [11]: Active | Activity [12]: Non-toxic | Tmax [13]: 1.5 h | clearance [14]: 22 mL/min/kg | microsomal CLint at 1 µM [15]: 5.5 µL/min/mg | IC50 [16]: > 10000 nM | Activity [17]: Dose-dependent effect | Kp at 0.5 h [18]: 0.13 | Activity [19]: Non-toxic | Drug uptake [20]: Dose-dependent effect | remaining at 1 h, 10 µM [21]: 64% | IC50 [22]: > 10000 nM | Cmax [23]: 486 ng/mL | bioavailability [24]: 25.7%

CCCS(=O)(=O)N1CCN(C2(CNC(=O)c3ccc(Cl)cc3Cl)CCOCC2)CC1
IC50 [25]: 500 nM | remaining at 1 h, 10 µM [21]: 100%

CCCS(=O)(=O)N1CCN(C2(CNC(=O)c3c(F)cccc3F)C[C@H]3C[C@H]3C2)CC1 (mixture of isomers)
IC50 [25]: 621 nM

CCCS(=O)(=O)N1CCN(C2(CNC(=O)c3c(N)cccc3Cl)CCCCCC2)CC1
IC50 [25]: 6.3 nM

CCCS(=O)(=O)N1CCN(C2(CNC(=O)c3ccc(OC(F)(F)F)cc3)CCCCC2)CC1
IC50 [26]: > 75000 nM | remaining at 1 h, 10 µM [21]: 11%

CCCS(=O)(=O)N1CCN(C2(CNC(=O)c3c(N)cccc3Cl)CCN(C)CC2)CC1
remaining at 1 h, 10 µM [21]: 40%

CCCS(=O)(=O)N1CCN(C2(CNC(=O)c3cccc(C(F)(F)F)c3Cl)CCCCC2)CC1
IC50 [25]: 77.9 nM | IC50 [26]: > 75000 nM | remaining at 1 h, 10 µM [21]: 1%

CCCS(=O)(=O)N1CCN(C2(CNC(=O)c3c(OC)cc(C(F)(F)F)cc3C(F)(F)F)CCCCC2)CC1
IC50 [25]: 4.4 nM | IC50 [26]: > 75000 nM | remaining at 1 h, 10 µM [21]: 10%

CCCS(=O)(=O)N1CCN(C2(CNC(=O)c3ccc(Cl)cc3)CCCCC2)CC1
IC50 [25]: 175 nM | IC50 [26]: > 75000 nM | remaining at 1 h, 10 µM [21]: 4%

CCCS(=O)(=O)N1CCN(C2(CNC(=O)c3cccc(C(F)(F)F)c3)CCCCC2)CC1
IC50 [25]: 523 nM | IC50 [26]: > 75000 nM

CCCS(=O)(=O)N1CCN(C2(CNC(=O)c3c(OC)cc(F)cc3SC)CCCCC2)CC1
IC50 [25]: 6.1 nM | remaining at 1 h, 10 µM [21]: 1%

CCCS(=O)(=O)N1CCN(C2(CNC(=O)c3ccccc3OC(F)(F)F)CCCCC2)CC1
IC50 [26]: > 75000 nM | remaining at 1 h, 10 µM [21]: 2%

CCCS(=O)(=O)N1CCN(C2(CNC(=O)c3ccc(OC)cc3F)CCCCC2)CC1
IC50 [25]: 17.1 nM | IC50 [26]: > 75000 nM | remaining at 1 h, 10 µM [21]: 4%

CCCS(=O)(=O)N1CCN(C2(CNC(=O)c3ccc(Cl)c(Cl)c3)CCCCC2)CC1
IC50 [26]: > 75000 nM | remaining at 1 h, 10 µM [21]: 5%

CCCS(=O)(=O)N1CCN(C2(CNC(=O)c3c(F)cccc3F)CCCCC2)CC1
IC50 [26]: > 75000 nM | remaining at 1 h, 10 µM [21]: 16%

CCCS(=O)(=O)N1CCN(C2(CNC(=O)c3c(Cl)cccc3Cl)CCCCC2)CC1
IC50 [25]: 12.8 nM | IC50 [26]: > 75000 nM | remaining at 1 h, 10 µM [21]: 3%

CCCS(=O)(=O)N1CCN(C2(CNC(=O)c3c(N)cccc3Cl)CCCCC2)CC1
IC50 [25]: 15.1 nM | IC50 [26]: > 75000 nM | remaining at 1 h, 10 µM [21]: 29%

CCCS(=O)(=O)N1CCN(C2(CNC(=O)c3ccc(Cl)cc3Cl)CCCCC2)CC1
IC50 [25]: 22.7 nM | IC50 [26]: > 75000 nM | remaining at 1 h, 10 µM [21]: 11%

CCCS(=O)(=O)N1CCN(C2(CNC(=O)c3ccccc3C(F)(F)F)CCCCC2)CC1
remaining at 1 h, 10 µM [21]: 5%

CCCS(=O)(=O)N1CCN(C2(CNC(=O)c3ccc(F)cc3C)CCCCC2)CC1
IC50 [26]: > 75000 nM | remaining at 1 h, 10 µM [21]: 2%

— ChEMBL document CHEMBL2321762, “Design, synthesis, and SAR of N-((1-(4-(propylsulfonyl)piperazin-1-yl)cycloalkyl)methyl)benzamide inhibitors of glycine transporter-1” (Bioorg Med Chem Lett, 2013)
